The values below come from patent publication US20230167088A1, “1-PYRAZINYLPYRAZOLYL-3-OXYALKYL ACIDS AND THEIR DERIVATIVES, AND THEIR USE FOR CONTROL OF UNDESIRED PLANT GROWTH” (BAYER AKTIENGESELLSCHAFT, priority 2020, published 2023).

The structures appear in SMILES notation.

For assay [1], the system named is DIGSA. Nature of the assay: Herbicidal pre-emergence action 2b (doubly sown, 1280 g/ha). The format is in vivo, Digitaria sanguinalis. Conditions: doubly sown pots, dosage 1280 g/ha, visual scoring after about 3 weeks. The procedure, abridged: (§1)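 Weed seeds sown in sandy loam, two species per pot, covered with soil; compounds as WP or EC applied to soil surface as aqueous suspension/emulsion with 0.5% additive at 600 L/ha water. Greenhouse growth; visual % activity vs untreated controls after about 3 weeks (100% = dead, 0% = like control).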

Assay [2] relates to ECHCG. The description is as above. In kind it is in vivo, Echinochloa crus-galli. The conditions noted are these: doubly sown pots, dosage 1280 g/ha, visual scoring after about 3 weeks. The procedure, abridged: as §1
Assay [3] deals with AMARE. The description is as above. The format is in vivo, Amaranthus retroflexus. The conditions noted are these: doubly sown pots, dosage 1280 g/ha, visual scoring after about 3 weeks. The procedure, abridged: as §1
The test system of assay [4] is STEME. The experiment in a line: Herbicidal post-emergence action 1b (twin sowing, 1280 g/ha). The conditions noted are these: dosage 1280 g/ha, visual rating about 3 weeks after treatment. The format is in vivo, Stellaria media. The procedure, abridged: (§2)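 Twin-sown mono- and dicot weeds in sandy loam were sprayed post-emergence at the one-leaf stage, 2–3 weeks after sowing, with WP or EC formulations in water plus 0.5% additive at 600 L/ha. After about 3 weeks in the greenhouse, activity was rated visually against untreated controls (0% = like control, 100% = plants dead).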

Assay [5] concerns ABUTH. The assay is described as above. Conditions: dosage 1280 g/ha, visual rating about 3 weeks after treatment. The format is in vivo, Abutilon theophrasti. Here is the method:
(§3) [table] b) Seeds of mono- and dicotyledonous weed plants are placed in plastic pots in sandy loam soil (twin sowing with one species each of mono- or dicotyledonous weed plants per pot), covered with soil and cultivated in a greenhouse under controlled growth conditions. 2 to 3 weeks after sowing, the test plants are treated at the one-leaf stage. The compounds of the invention, formulated in the form of wettable powders (WP) or as emulsion concentrates (EC), are applied to the green parts of the plants as aqueous suspension or emulsion with addition of 0.5% additive at a water application rate equivalent to 600 litres per hectare. After the test plants have been kept in the greenhouse under optimum growth conditions for about 3 weeks, the activity of the preparations is rated visually in comparison to untreated controls. For example, 100% activity=the plants have died, 0% activity=like control plants. Tables A16 to A21 below show the effects of selected compounds of the general formula (I) according to Tables 1 and 2 on various harmful plants and at an application rate corresponding to 1280 g/ha, which were obtained by the experimental procedure mentioned above.

The test system of assay [6] is AMARE. Nature of the assay: Herbicidal pre-emergence action 2a (greenhouse pots, visual scoring). The format is in vivo, Amaranthus retroflexus. Conditions: dosage 80 g/ha, visual scoring after about 3 weeks vs untreated controls. The procedure, abridged:
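Pre-emergence soil-surface spray: WP/EC, 0.5% additive, 600 l/ha water, 320 and/or 80 g/ha. Greenhouse ~3 wk. Visual % damage vs untreated (100% = plants dead, 0% = like control).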

Assay [7] relates to MATIN. The experiment in a line: Herbicidal pre-emergence action 2b (doubly sown, 1280 g/ha). The format is in vivo, Matricaria inodora. Conditions: doubly sown pots, dosage 1280 g/ha, visual scoring after about 3 weeks. The procedure, abridged:
as §1

Assay [8] deals with POAAN. The experiment in a line: Herbicidal post-emergence action 1b (twin sowing, 1280 g/ha). The format is in vivo, Poa annua. The conditions noted are these: dosage 1280 g/ha, visual rating about 3 weeks after treatment. The procedure, abridged: as §2
The test system of assay [9] is AMARE. The experiment in a line: Herbicidal post-emergence action 1a (greenhouse pots, visual rating). In kind it is in vivo, Amaranthus retroflexus. The conditions noted are these: dosage 80 g/ha, visual rating about 3 weeks after treatment. The procedure, abridged: (§4)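 Weeds and crops sown in sandy loam in greenhouse pots were sprayed post-emergence at the one-leaf stage (2–3 weeks after sowing) with WP or EC formulations plus 0.5% additive at 600 l/ha water, 320 and/or 80 g/ha. About 3 weeks later damage was rated visually against untreated controls (0% = no effect, 100% = dead).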

Assay [10] deals with ALOMY. The description is as above. Conditions: Dosage 80 g/ha; rated visually about 3 weeks after treatment; 100% = plants have died, 0% = like control plants. The format is in vivo, Alopecurus myosuroides. The procedure, abridged: as §4
In assay [11] the test system is DIGSA. The experiment in a line: Herbicidal post-emergence action 1b (twin sowing, 1280 g/ha). The format is in vivo, Digitaria sanguinalis. Conditions: dosage 1280 g/ha, visual rating about 3 weeks after treatment. As for the experimental part:
as §3

Assay [12] relates to MATIN. Described as above. Conditions: dosage 1280 g/ha, visual rating about 3 weeks after treatment. The format is in vivo, Matricaria inodora. The procedure, abridged:
as §2

Assay [13] deals with PHBPU. Nature of the assay: Herbicidal post-emergence action 1a (greenhouse pots, visual rating). The format is in vivo, Pharbitis purpurea. The conditions noted are these: dosage 80 g/ha, visual rating about 3 weeks after treatment. The procedure, abridged:
as §4

For assay [14], the system named is STEME. The experiment in a line: Herbicidal pre-emergence action 2b (doubly sown, 1280 g/ha). In kind it is in vivo, Stellaria media. The conditions noted are these: doubly sown pots, dosage 1280 g/ha, visual scoring after about 3 weeks. The procedure, abridged: as §1
Assay [15] has as its system POAAN. The description is as above. The format is in vivo, Poa annua. Conditions: doubly sown pots, dosage 1280 g/ha, visual scoring after about 3 weeks. The procedure, abridged:
as §1

The test system of assay [16] is ECHCG. The experiment in a line: Herbicidal post-emergence action 1b (twin sowing, 1280 g/ha). The format is in vivo, Echinochloa crus-galli. Conditions: dosage 1280 g/ha, visual rating about 3 weeks after treatment. As for the experimental part:
as §3

In assay [17] the test system is DIGSA. The experiment in a line: Herbicidal post-emergence action 1a (greenhouse pots, visual rating). In kind it is in vivo, Digitaria sanguinalis. Conditions: Dosage 80 g/ha; rated visually about 3 weeks after treatment; 100% = plants have died, 0% = like control plants. Here is the method: [table] a) Seeds of monocotyledonous and dicotyledonous weeds and crop plants are placed in sandy loam in plastic or organic plant pots, covered with soil and cultivated in a greenhouse under controlled growth conditions. 2 to 3 weeks after sowing, the test plants are treated at the one-leaf stage. The compounds of the invention, formulated in the form of wettable powders (WP) or as emulsion concentrates (EC), are then sprayed onto the green parts of the plants as aqueous suspension or emulsion with addition of 0.5% additive at a water application rate of 600 1/ha (converted). After the test plants have been kept in the greenhouse under optimum growth conditions for about 3 weeks, the activity of the preparations is rated visually in comparison to untreated controls. For example, 100% activity=the plants have died, 0% activity=like control plants. Tables A1 to A15 below show the effects of selected compounds of the general formula (I) according to Tables 1 and 2 on various harmful plants and an application rate corresponding to 320 g/ha and/or 80 g/ha, which were obtained by the experimental procedure mentioned above.

Assay [18] deals with DIGSA. The experiment in a line: Herbicidal pre-emergence action 2a (greenhouse pots, visual scoring). In kind it is in vivo, Digitaria sanguinalis. The conditions noted are these: dosage 80 g/ha, visual scoring after about 3 weeks. An excerpt: [table] a) Seeds of monocotyledonous and dicotyledonous weed plants and crop plants are placed in plastic or organic plant pots and covered with soil. The compounds of the invention, formulated in the form of wettable powders (WP) or as emulsion concentrates (EC), are then applied onto the surface of the covering soil as aqueous suspension or emulsion with addition of 0.5% additive at a water application rate of 600 1/ha (converted). After the treatment, the pots are placed in a greenhouse and kept under good growth conditions for the trial plants. After about 3 weeks, the effect of the preparations is scored visually in comparison with untreated controls as percentages. For example, 100% activity=the plants have died, 0% activity=like control plants. Tables B1 to B15 below show the effects of selected compounds of the general formula (I) according to Tables 1 and 2 on various harmful plants and an application rate corresponding to 320 g/ha and/or 80 g/ha, which were obtained by the experimental procedure mentioned above.

As to `CC(Oc1nn(-c2cnccn2)c(-c2ccc(F)c(F)c2)c1Br)C(=O)O` (centres unmarked) [Example I-47], in assay [1], the “Pre-emergence action at 1280 g/ha against DIGSA in %” value stood at 100%. Also, the “Pre-emergence action at 1280 g/ha against ECHCG in %” value in assay [2] was determined as 100%. In assay [3], the “Pre-emergence action at 1280 g/ha against AMARE in %” value is listed as 100%. Besides, in [4], the “Post-emergence action at 1280 g/ha against STEME in %” value is 100%. Moreover, the “Post-emergence action at 1280 g/ha against ABUTH in %” value in assay [5] came out at 90%. The “Pre-emergence action against AMARE in %” value in [6] amounted to 90%. Besides, in assay [7], the “Pre-emergence action at 1280 g/ha against MATIN in %” value was determined as 100%. Moreover, the “Post-emergence action at 1280 g/ha against POAAN in %” value in assay [8] was 100%. Also, in assay [9], the “Post-emergence action against AMARE in %” value amounted to 80%. Moreover, the “Post-emergence action against ALOMY in %” value in assay [10] worked out at 90%. Moreover, the “Post-emergence action at 1280 g/ha against DIGSA in %” value in assay [11] is 100%. Besides, in assay [12], the “Post-emergence action at 1280 g/ha against MATIN in %” value amounted to 90%. Moreover, the “Post-emergence action against PHBPU in %” value in assay [13] turned out to be 80%. In addition, in [14], the “Pre-emergence action at 1280 g/ha against STEME in %” value is 100%. Moreover, in assay [15], the “Pre-emergence action at 1280 g/ha against POAAN in %” value is reported as 100%. In addition, in [16], the “Post-emergence action at 1280 g/ha against ECHCG in %” value was 100%. The “Post-emergence action against DIGSA in %” value in [17] worked out at 80%. In addition, in assay [18], the “Pre-emergence action against DIGSA in %” value turned out to be 100%.
For the compound `O=C(COc1nn(-c2cnccn2)c(-c2ccc(F)nc2)c1Br)OCc1ccccn1` [Example I-70], the “Pre-emergence action at 1280 g/ha against DIGSA in %” value in assay [1] amounted to 100%. The “Pre-emergence action at 1280 g/ha against ECHCG in %” value in [2] is recorded as 100%. The “Pre-emergence action at 1280 g/ha against AMARE in %” value in [3] is 100%. Also, the “Post-emergence action at 1280 g/ha against STEME in %” value in assay [4] turned out to be 100%. In addition, the “Post-emergence action at 1280 g/ha against ABUTH in %” value in [5] is 100%. The “Pre-emergence action at 1280 g/ha against MATIN in %” value in assay [7] is 100%. In assay [11], the “Post-emergence action at 1280 g/ha against DIGSA in %” value came to 100%. In assay [12], the “Post-emergence action at 1280 g/ha against MATIN in %” value is listed as 100%. Besides, the “Pre-emergence action at 1280 g/ha against STEME in %” value in assay [14] is 100%. The “Pre-emergence action at 1280 g/ha against POAAN in %” value in assay [15] came out at 100%. In addition, in assay [16], the “Post-emergence action at 1280 g/ha against ECHCG in %” value was determined as 90%.
